Reference: patent US20080200338A1, “Heteroaroyl-Substituted Serineamides” (BASF Aktiengesellschaft, priority 2005, published 2008)

melting point [°C] | SMILES
136 | C=CC(O)C(NC(=O)c1cn(C)nc1C(F)(F)F)C(=O)NC (racemic) [Compound 3.4, N-(2-Hydroxy-1-methylcarbamoylbut-3-enyl)-1-methyl-3-trifluoromethyl-1H-pyrazole-4-carboxamide]
160 | C=CC(OC(C)=O)C(NC(=O)c1cn(C)nc1C(F)(F)F)C(=O)NC (racemic) [Compound 3.10, 1-{Methylcarbamoyl-[(1-methyl-3-trifluoromethyl-1H-pyrazol-4-carbonyl)amino]methyl}-allyl acetate]
